Laboratory results reported in publication PMC10848080 (CNS Neuroscience & Therapeutics, 2023).
≈ marks a conversion by molar mass, not a printed value.

Tests used:
[1] = tested on: 6-OHDA-lesioned rats; assay: Open-field test in 6-OHDA-lesioned rats; assay type: in vivo, rat; conditions: L-dopa 60 mg/kg, PIP 20 mg/kg, once a day for 6 weeks
Method: Adaptively raised for 1 week, SD rats were randomly divided into two groups: the sham‐operated group (n = 6) and the 6‐OHDA‐lesioned group (n = 36). After deep anesthesia, the rats were stereotaxically injected with 3 μL 6‐OHDA (4 mg/mL in 0.02% ascorbic acid saline; Sigma) into the left striatum following our previously described protocol,[17] and the rats in sham group were injected with 3 μL vehicle (0.02% ascorbic acid saline).
(§1) The damage of rat dopaminergic neurons was assessed by apomorphine (APO, Sigma)‐induced rotation tests at the 5th, 8th, and 11th weeks of experiment.[17] […] The dosages of PIP used in the present study were safe for rats.[21] Rats were treated once a day for 6 weeks. The 6‐OHDA group and sham group were treated with the same volume of substrate solution (0.5% CMC‐Na).
Open‐field test was conducted on the 2nd day after the rotation test. The movements in 5 min of rats in open‐field apparatus (100 × 100 × 40 cm), including total movement distance (cm) and horizontal velocity (cm/s), were recorded by the TruScan Activity Monitoring System (USA). Abnormal involuntary movements (AIMs) were scored according to the rating system described in Lee's study.[22] […] Then, the dyskinesia behaviors of rats, including axial dystonia, reverse rotation, and limb and masticatory dyskinesia, were evaluated during a 1‐min monitoring period, repeated every 20 min for 2 h. […]

[2] = tested on: DA in rat striatum; assay: Striatal DA content by HPLC-ECD in 6-OHDA-lesioned rats; assay type: in vivo; conditions: 6 weeks, L-dopa vs 6-OHDA, combination vs L-dopa alone in lesioned striatum
[3] = tested on: E. faecalis; assay: qPCR quantification of E. faecalis in feces of 6-OHDA-lesioned rats; assay type: in vivo, rat; conditions: PIP 10 and 20 mg/kg after 3 weeks, dose-dependent, combination vs L-dopa after 6 weeks
Method: as §1
(§2) Fecal microbial genomic DNA was extracted using the TIANamp Stool DNA Kit (TIANGEN). Plasmids containing the target sequences of E. faecalis 16 S rRNA and TDC were prepared (Figure S1A,B). Then, 10‐fold serial dilutions of plasmid were used as the templates to make the standard curves for absolute quantification. Quantitative PCR (qPCR) experiments were performed on 40 ng DNA in 20 μL reactions, following the amplification program: initial denaturation at 95°C for 15 min, 45 cycles of 95°C for 10 s, 58°C for 31 s, 72°C for 30 s, ended with a final extension at 72°C for 10 min. The absolute E. faecalis 16 S rRNA gene and TDC gene copies in fecal DNA samples were calculated based on the standard curves.

[4] = tested on: TDC; assay: qPCR quantification of TDC in feces of 6-OHDA-lesioned rats; assay type: in vivo, rat; conditions: PIP dose-dependent, after 3 weeks, vs 6-OHDA
Method: as §1, §2

[5] = tested on: E. faecalis; assay: qPCR of E. faecalis in feces of E. faecalis-transplanted rats; assay type: in vivo, rat; conditions: 1 week of administration, combination vs L-dopa alone
Method: as §2

[6] = tested on: TDC; assay: TDC gene expression and specific activity in feces of E. faecalis-transplanted rats; assay type: in vivo, rat; conditions: 1 week of administration, combination vs L-dopa alone
Method: as §2
(§3) The rat feces were weighed and suspended in lysis buffer. After centrifugation at 800 g for 10 min, the supernatants were collected and added with lysozyme. The mixtures were centrifuged at 12,000 g for 20 min, and the supernatants were obtained for protein concentration determination and the detection of TDC level in rat feces using rat TDC ELISA kit (MM‐71824R1, MEIMIAN). The results are expressed as U/mg protein.

[7] = tested on: intestinal bacteria of SD rats; assay: L-dopa conversion rate in rat intestinal bacteria (feces) culture in vitro; assay type: cell-based; conditions: 24 h, anaerobic, vs L-dopa alone
Method: (§4) The column was maintained at 40°C.
(§5) The whole blood, colon contents, jejunum, and brain tissues of SD rats (n = 6) were collected. Colonic contents were pooled and suspended in anaerobic medium (Aobox) at a ratio of 1:20 (g/mL), the mixtures were centrifuged at 800 g (4°C) for 10 min, and then collected the supernatant for culture. Tissues were pooled and weighed, then homogenized with 5 mM phosphate buffer (pH = 7.4) at the ratio of 1:5 (g/ml). […] The intestinal bacterial cultures were incubated in an anaerobic chamber, while tissues or blood incubation systems were incubated at 37°C for 12 and 24 h, and then the incubation was terminated with three‐fold acetonitrile. After centrifugation at 12,000 g for 10 min, the supernatants were collected for HPLC‐FLD analysis.

[8] = L-dopa conversion rate in rat whole blood and tissue homogenates in vitro; assay type: in vitro ADME; conditions: L-dopa 0.3 mM + PIP 10 or 20 μg/mL, 12 and 24 h, vs L-dopa alone
Method: as §4, §5

[9] = tested on: E. faecalis ATCC29212; assay: L-dopa conversion rate in E. faecalis ATCC29212 culture; assay type: cell-based, Enterococcus faecalis; conditions: 24 h, anaerobic, vs L-dopa alone
Method: as §4
(§6) The growth control group and negative control group were set. The cultures were incubated at 37°C under an anaerobic environment. The 1 mL of incubation sample and twofold cold acetonitrile were added to terminate the incubation. After centrifugation at 12,000 g for 10 min, the supernatants were collected for HPLC‐FLD analysis.

[10] = target: T1, TDC (from E. faecalis NCTC6783) (Enterococcus faecalis, UniProt P0DTQ4); assay: TDC enzyme assay (DA produced from L-dopa); assay type: biochemical; conditions: 250 μM PIP, L-dopa 0.3 mM, pH 5.5, relative to solvent control
T1 construct: purchased Aladdin
T1 sequence (P0DTQ4 1-620): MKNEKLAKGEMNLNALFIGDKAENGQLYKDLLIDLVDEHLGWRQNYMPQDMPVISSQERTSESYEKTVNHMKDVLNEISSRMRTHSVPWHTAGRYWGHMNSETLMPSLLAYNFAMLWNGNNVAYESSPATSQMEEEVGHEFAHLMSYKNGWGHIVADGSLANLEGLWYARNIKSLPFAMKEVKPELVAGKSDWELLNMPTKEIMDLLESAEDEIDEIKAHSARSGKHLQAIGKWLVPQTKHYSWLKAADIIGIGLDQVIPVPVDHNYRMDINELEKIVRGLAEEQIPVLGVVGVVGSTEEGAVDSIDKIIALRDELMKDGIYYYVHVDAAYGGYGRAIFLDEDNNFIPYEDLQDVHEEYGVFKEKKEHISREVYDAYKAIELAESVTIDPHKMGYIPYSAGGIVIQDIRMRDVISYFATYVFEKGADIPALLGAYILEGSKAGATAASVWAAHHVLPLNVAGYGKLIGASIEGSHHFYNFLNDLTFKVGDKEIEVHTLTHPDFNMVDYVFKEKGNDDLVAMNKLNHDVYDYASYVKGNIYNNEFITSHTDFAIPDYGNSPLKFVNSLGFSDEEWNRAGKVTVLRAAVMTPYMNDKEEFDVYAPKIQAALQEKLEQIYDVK
Method: (§7) TDC (from E. faecalis NCTC6783, Aladdin; 0.02 mg/mL) and PLP (2 mM, Sigma) were pre‐incubated with various concentrations (0.01–250 μM) of PIP in 0.2 M sodium acetate buffer (pH = 5.5) at 37°C for 15 min. […] After 20 min of incubation, the reaction was quenched by diluting 1:10 in methanol containing 0.7% perchloric acid.[25] The mixture was centrifuged at 12,000 g (4°C) for 5 min, and the supernatant was collected for the determination of DA by HPLC‐ECD.

[11] = tested on: TDC mRNA in E. faecalis ATCC29212; assay: RT-qPCR of TDC gene expression in E. faecalis ATCC29212; assay type: cell-based, Enterococcus faecalis; conditions: PIP 10 or 20 μg/mL, 24 h
Method: as §6
Total RNA was extracted from the culture pellets generated in the experiment described above “Incubation of E. faecalis in vitro” using the RNAprep Pure Cell/Bacteria Kit (TIANGEN). A FastQuant RT Kit (with gDNase) (TIANGEN) was used to transcribe RNA to cDNA. After that, RT–qPCR was conducted using 2 × SuperReal PreMix Plus (TIANGEN) and performed on the CFX Connect™ Real‐Time System (Bio–Rad) following the amplification program: 95°C for 15 min, followed by 40 cycles of 95°C for 10 s, 52°C for 31 s, and 72°C for 30 s. The program ended with a final extension at 72°C for 10 min. The relative gene expression was calculated using the 2^−^ΔΔ^Ct method.

[12] = tested on: TDC in E. faecalis; assay: ELISA of TDC specific activity in E. faecalis ATCC29212; assay type: cell-based, Enterococcus faecalis; conditions: PIP 10 or 20 μg/mL, 24 h
Method: as §6
The bacterial protein was extracted from the culture pellets generated as described above. After being washed with PBS three times, the bacterial pellets were re‐suspended in 400 μL PBS containing 2% ethanol and incubated in ice bath for 30 min. After centrifugation at 1000 g for 10 min, the sediments were collected and lysed using lysis buffer containing 100 μg/mL lysozyme, then centrifuged at 12,000 g for 20 min to collect the supernatants. After determining the protein concentration using the BCA kit (Beyotime), the assay of TDC level in E. faecalis was performed according to the Microorganism TDC Elisa kit (MM‐925239O2, MEIMIAN) guideline. Briefly, the extracted protein samples were added to the coated wells together with the balance solution and HRP conjugate reagent, then incubated at 37°C. […] After adding the stop solution to each well, the optical density was measured at the wavelength of 450 nm. The specific activity of TDC was calculated based on the standard curve. The results are expressed as U/mg protein.

[13] = tested on: tyrosine hydroxylase (TH); assay: Western blot of tyrosine hydroxylase in lesioned substantia nigra; assay type: in vivo, rat; conditions: 6-OHDA-lesioned rats, 6 weeks
Method: as §1
The left substantia nigra (SN) of rat was lysed using non‐denaturing lysis buffer, and immunoblotting was performed following the reported protocol.[19] Protein homogenates were subjected to Western blot analysis using antibodies against tyrosine hydroxylase (TH, 1:1000, Sigma) and GAPDH (1:2000, Proteintech). The blots were visualized by a NcmECL Ultra Western blot diction kit (NCM Biotech), and densitometry was analyzed by using the Fusion FX Image system (Vilber Lourmat).

[14] = tested on: TDC; assay: ELISA of TDC specific activity in feces of 6-OHDA-lesioned rats; assay type: in vivo, rat; conditions: 6-OHDA-lesioned rats after 6 weeks of administration; combination vs L-dopa alone
Method: as §3

[15] = Solubility limit of PIP in the TDC enzyme assay; assay type: physicochemical; conditions: 37 °C, pH 5.5, aqueous buffer
Method: as §7

[16] = parameters: method as in PMID 23603295; conditions: previous studies; cited from earlier work
[17] = tested on: MAO; parameters: method as in PMID 32099971; conditions: reported; cited from earlier work
[18] = PIP 10 and 20 mg/kg, rats; cited from earlier work

For `N[C@@H](Cc1ccc(O)c(O)c1)C(=O)O` [L‐dopa, Levodopa], the “movement speed in open field” value [1] was “alleviate the bradykinesia”, the “total movement distance in open field” value [1] was “alleviate the bradykinesia” and the “DA level in striatum (HPLC-ECD)” value [2] was “significantly increased”. The “abundance of E. faecalis in feces (qPCR)” value [3] was “did not show a notable effect”, the “expression of TDC in feces (qPCR)” value [4] was “further increased” and the “abundance of E. faecalis in feces” value [5] was “no significant effect”. The “expression of TDC in feces” value [6] was “upregulation”.
In the case of `O=C(/C=C/C=C/c1ccc2c(c1)OCO2)N1CCCCC1` [PIP, piperine], the “decrease of conversion rate (CR) of L-dopa” value ([7]; PIP 10 μg/mL + L-dopa 0.3 mM) is reported as 17.02%, the “decrease of conversion rate (CR) of L-dopa” value ([7]; PIP 20 μg/mL + L-dopa 0.3 mM) is reported as 27.55% and the “CR of L-dopa in brain homogenate” value ([8]; rat brain homogenate) is reported as “no significant difference”. For the same compound, the “CR of L-dopa in small intestine homogenate” value ([8]; rat small intestine homogenate) was “no significant difference”, the “CR of L-dopa in blood” value ([8]; rat whole blood) was “no significant difference” and the “decrease of CR of L-dopa” value ([9]; PIP 10 μg/mL + L-dopa 0.3 mM) was 17.22%. For the same compound, the “decrease of CR of L-dopa” value ([9]; PIP 20 μg/mL + L-dopa 0.3 mM) was 32.01%, the “decrease in TDC activity” value [10] was 20.95% and the “gene expression of TDC in E. faecalis” value [11] was “reduced”. The “specific activity of TDC in E. faecalis” value [12] was “reduced”, the “lesions of dopaminergic neurons (TH protein level in SN)” value [13] was “efficiently attenuate the lesions” and the “abundance of E. faecalis in feces (qPCR)” value [3] was “significantly reduce”. For the same compound, the “expression of TDC in feces (qPCR)” value [4] was “significantly suppressive effect”, the “specific activity of TDC in feces (ELISA)” value [14] was “significantly decrease” and the solubility [15] was 250 µM (≈ 71.3 µg/mL). For the same compound, the “crossing of the blood-brain barrier” value [16] was “can cross”, the tissue distribution [16] was “wide tissue distribution” and the MAO inhibition [17] was “potential to inhibit MAO activity”. The “safety of the dosages used” value [18] was “safe”.
